Measurements from patent US4005103A, “Pyrrolidine derivatives” (priority 1973, dated 1977).
Read-outs that look alike come from different tables or passages of the source.

Columns and labels:
[1] = Toxicity, isolated mice (death rate); conditions: mouse, in vivo, 4 hours after treatment, read-out: percentage death rate
Experimental: (§1) Batches of 10 mice are placed in boxes covered with grids (20 × 10 × 10 cm), either isolated individually, or in groups of 10. The test compound is administered orally to them. The death rate is noted 4 hours after the treatment.
(§2) Tables IV and V below give the percentage death rate for the products of Examples XXIV and XXVII compared with d-amphetamine sulphate.

[2] = Toxicity, mice in groups (death rate); conditions: mouse, in vivo, 4 hours after treatment, read-out: percentage death rate
Experimental: as §1, §2

[3] = Cardiovascular activity in anaesthetised dogs; type: in vivo; conditions: for pulmonary and systemic hypertension: amphetamine injected intravenously
Description: 5. CARDIOVASCULAR ACTIVITY

[4] = Anorexigenic activity in dogs; type: in vivo, Beagle dogs; conditions: Canis lupus familiaris, read-out: percentage inhibition of consuming food
Experimental: 2. ANOREXIGENIC ACTIVITY IN DOGS
Beagle dogs are conditioned to take their food over the course of 5 minutes once per day. The test compound is administered orally in the form of a single dose of 10 mg/kg one hour before the food is presented. The amount of food ingested is measured at regular intervals.
Table II gives the percentage inhibition of consuming food as a function of the time after treatment.

[5] = Clinical activity (food intake in man); type: in vivo; conditions: daily dose of 50 mg
Experimental: The compounds are preferably presented in a form suitable for oral administration, for example in the form of gelatin-coated pills containing 25 mg of the active ingredient.

[6] = Potentiation of amphetamine: stereotypies in rats after d-amphetamine sulphate; type: in vivo; conditions: 30 min before 5 mg/kg d-amphetamine sulphate i.p., over 3 hours, maximum 24
Experimental: 1. POTENTIATION OF AMPHETAMINE
The test compound is administered intraperitoneally to rats 30 minutes before the intraperitoneal injection of 5 mg/kg of d-amphetamine sulphate. The intensity of the stereotypies over a period of 3 hours is assessed by attributing a number from 0 to 4. Table I indicates the sum of the assessments as a function of the doses administered. The maximum assessment is 24.

[7] = Anorexigenic activity in rats; type: in vivo, Sprague Dawley male rats; conditions: for ED50: Rattus norvegicus, oral, Litchfield and Wilcoxon method, read-out: ED50 (50% inhibiting dose in relation to the consumption of food)
Experimental: 3. ANOREXIGENIC ACTIVITY IN RATS
Two batches of three Sprague Dawley male rats (130 - 180 g) are conditioned to take their daily food over the course of 7 hours. Water is given as desired. The test compound is administered orally 30 minutes before the food is presented. The amount ingested is measured 1 hour and 2 hours later. The 50% inhibiting dose in relation to the consumption of food (ED50) and the confidence range are calculated according to the Litchfield and Wilcoxon method.
Table III gives the percentage inhibition in relation to the consumption of food as a function of the doses administered.

[8] = Beagle dogs, 10 mg/kg oral, 1 hr after treatment
[9] = Beagle dogs, 10 mg/kg oral, 2 hrs after treatment
[10] = Beagle dogs, 10 mg/kg oral, 4 hrs after treatment
[11] = Beagle dogs, 10 mg/kg oral, 24 hrs after treatment

| Structure (SMILES) | mortality at 4 h ([1]; 16 mg/kg oral) [%] | mortality at 4 h ([1]; 32 mg/kg oral) [%] | mortality at 4 h ([1]; 64 mg/kg oral) [%] | mortality at 4 h ([2]; 16 mg/kg oral) [%] | mortality at 4 h ([2]; 32 mg/kg oral) [%] | pulmonary and systemic hypertension [3] | inhibition in vivo at 10 mg/kg ([4]; po, 1 h) [%] | inhibition in vivo at 10 mg/kg ([4]; po, 2 h) [%] | inhibition in vivo at 10 mg/kg ([4]; po, 4 h) [%] | inhibition in vivo at 10 mg/kg ([4]; po, 24 h) [%] | sum of the assessments of intensity of stereotypies ([6]; 1 mg/kg intraperitoneal) | sum of the assessments of intensity of stereotypies ([6]; 4 mg/kg intraperitoneal) | sum of the assessments of intensity of stereotypies ([6]; 16 mg/kg intraperitoneal) | inhibition in vivo at 10 mg/kg [4, 8] [%] | inhibition in vivo at 10 mg/kg [4, 9] [%] | sum of the assessments of intensity of stereotypies ([6]; 2 mg/kg intraperitoneal) | sum of the assessments of intensity of stereotypies ([6]; 8 mg/kg intraperitoneal) | sum of the assessments of intensity of stereotypies ([6]; 32 mg/kg intraperitoneal) | also measured |
| --- | --- | --- | --- | --- | --- | --- | --- | --- | --- | --- | --- | --- | --- | --- | --- | --- | --- | --- | --- |
| CC(N)Cc1ccccc1 (stereo not drawn) [Amphetamine, d-amphetamine sulphate, reference compound] | 0 | 0 | 10 | 100 | 100 | causes pulmonary and systemic hypertension | – | – | – | – | – | – | – | – | – | – | – | – | mortality at 4 h ([1]; 128 mg/kg oral): 100%; mortality at 4 h ([2]; 4 mg/kg oral): 0%; mortality at 4 h ([2]; 8 mg/kg oral): 20% |
| CC1NC(C2CC2)CC1c1ccc(Cl)c(Cl)c1.Cl (stereo not drawn) [XXVII, 2-cyclopropyl-4-(3',4'-dichlorophenyl)-5-methylpyrrolidine hydrochloride] | 0 | 20 | 70 | 0 | 0 | do not cause these phenomena | 100 | 100 | 100 | 100 | 21 | 23 | 24 | – | – | – | – | – | inhibition in vivo at 10 mg/kg ([4]; po, 48 h): 100%; amount of food ingested daily [5]: a decrease in the amount of food ingested daily; mortality at 4 h ([2]; 64 mg/kg oral): 0%; mortality at 4 h ([2]; 128 mg/kg oral): 70%; systemic hypotension [3]: cause systemic hypotension; percentage inhibition in relation to the consumption of food ([7]; 0.5 mg/kg oral, 1 hr): 25%; percentage inhibition in relation to the consumption of food ([7]; 0.5 mg/kg oral, 2 hrs): 30%; percentage inhibition in relation to the consumption of food ([7]; 1 mg/kg oral, 1 hr): 39%; percentage inhibition in relation to the consumption of food ([7]; 1 mg/kg oral, 2 hrs): 36%; percentage inhibition in relation to the consumption of food ([7]; 2 mg/kg oral, 1 hr): 28%; percentage inhibition in relation to the consumption of food ([7]; 2 mg/kg oral, 2 hrs): 37%; percentage inhibition in relation to the consumption of food ([7]; 4 mg/kg oral, 1 hr): 58%; percentage inhibition in relation to the consumption of food ([7]; 4 mg/kg oral, 2 hrs): 55%; percentage inhibition in relation to the consumption of food ([7]; 8 mg/kg oral, 1 hr): 84%; percentage inhibition in relation to the consumption of food ([7]; 8 mg/kg oral, 2 hrs): 83%; percentage inhibition in relation to the consumption of food ([7]; 16 mg/kg oral, 1 hr): 100%; percentage inhibition in relation to the consumption of food ([7]; 16 mg/kg oral, 2 hrs): 100%; ED50 ([7]; 1 hr): 2.3 mg/kg; ED50 ([7]; 2 hrs): 2.2 mg/kg |
| CC1NC(C2CC2)CC1c1ccc(Cl)cc1.Cl (stereo not drawn) [XXIV, 2-cyclopropyl-4-(p-chlorophenyl)-5-methylpyrrolidine hydrochloride] | 0 | 0 | 0 | 0 | 0 | do not cause these phenomena | 100 | 100 | 100 | 80 | 7 | 22 | 24 | – | – | – | – | – | mortality at 4 h ([1]; 128 mg/kg oral): 27%; inhibition in vivo at 10 mg/kg ([4]; po, 48 h): 50%; amount of food ingested daily [5]: a decrease in the amount of food ingested daily; mortality at 4 h ([2]; 64 mg/kg oral): 0%; mortality at 4 h ([2]; 128 mg/kg oral): 0%; systemic hypotension [3]: cause systemic hypotension; percentage inhibition in relation to the consumption of food ([7]; 1 mg/kg oral, 1 hr): 6%; percentage inhibition in relation to the consumption of food ([7]; 1 mg/kg oral, 2 hrs): 5%; percentage inhibition in relation to the consumption of food ([7]; 2 mg/kg oral, 1 hr): 44%; percentage inhibition in relation to the consumption of food ([7]; 2 mg/kg oral, 2 hrs): 53%; percentage inhibition in relation to the consumption of food ([7]; 4 mg/kg oral, 1 hr): 47%; percentage inhibition in relation to the consumption of food ([7]; 4 mg/kg oral, 2 hrs): 34%; percentage inhibition in relation to the consumption of food ([7]; 8 mg/kg oral, 1 hr): 77%; percentage inhibition in relation to the consumption of food ([7]; 8 mg/kg oral, 2 hrs): 71%; percentage inhibition in relation to the consumption of food ([7]; 16 mg/kg oral, 1 hr): 77%; percentage inhibition in relation to the consumption of food ([7]; 16 mg/kg oral, 2 hrs): 80%; ED50 ([7]; 1 hr): 3.5 mg/kg; ED50 ([7]; 2 hrs): 5.6 mg/kg |
| CC1NC(C2CC2)CC1c1cccc(C(F)(F)F)c1.Cl (stereo not drawn) [XXIX, 2-cyclopropyl-4-(m-trifluoromethylphenyl)-5-methyl-pyrrolidine hydrochloride] | – | – | – | – | – | – | – | – | – | – | 17 | 22 | 16 | 0 | 0 | – | – | – | – |
| CC1NC(C2CC2)CC1c1cccc(Cl)c1.Cl (stereo not drawn) [XXV, 2-cyclopropyl-4-(m-chlorophenyl)-5-methylpyrrolidine hydrochloride] | – | – | – | – | – | – | – | – | – | – | – | – | – | 50 | 50 | 18 | 23 | – | inhibition in vivo at 10 mg/kg [4, 10]: 50%; inhibition in vivo at 10 mg/kg [4, 11]: 0%; sum of the assessments of intensity of stereotypies ([6]; 0.5 mg/kg intraperitoneal): 13 |
| CC1(C)NC(C2CC2)CC1c1cccc(C(F)(F)F)c1.Cl (stereo not drawn) [Example XXX, 2-cyclopropyl-4-(m-trifluoromethylphenyl)-5,5-dimethylpyrrolidine hydrochl oride] | – | – | – | – | – | – | – | – | – | – | 20 | 24 | 24 | 0 | 0 | – | – | – | – |
| COc1ccc(C2CC(C3CC3)NC2C)cc1OC.Cl (stereo not drawn) [XXXI, 2-cyclopropyl-4-(3',4'-dimethoxyphenyl)-5-methylpyrrolidine hydrochloride] | – | – | – | – | – | – | – | – | – | – | – | – | – | 0 | 0 | 10 | 24 | 23 | – |
| CC1(C)NC(C2CC2)CC1c1ccccc1.Cl (stereo not drawn) [Example XXI, 2-cyclopropyl-4-phenyl-5,5-dimethylpyrrolidine hydrochloride] | – | – | – | – | – | – | 100 | 100 | 70 | 0 | – | 10 | 13 | – | – | – | 11 | – | – |
| CC1C(c2ccc(Cl)cc2)CC(C2CC2)N1CCO.Cl (stereo not drawn) [XXXVII, N-hydroxyethyl-2-cyclopropyl-4-(p-chlorophenyl)-5-methylpyrrolidine hydrochloride] | – | – | – | – | – | – | – | – | – | – | – | – | 24 | 0 | 0 | 12 | – | 24 | – |
| CC1C(c2ccc(Cl)c(Cl)c2)CC(C2CC2)N1Cc1ccccc1.Cl (stereo not drawn) [XXXIV, N-benzyl-2-cyclopropyl-4-(3',4'-dichlorophenyl)-5-methylpyrrolidine hydrochloride] | – | – | – | – | – | – | – | – | – | – | – | – | – | 100 | 100 | 20 | 21 | 15 | inhibition in vivo at 10 mg/kg [4, 10]: 100%; inhibition in vivo at 10 mg/kg [4, 11]: 50%; inhibition in vivo at 10 mg/kg ([4]; Beagle dogs, 10 mg/kg oral, 48 hrs after treatment): 0% |
